Reference: PubChem BioAssay AID248 (DTP/NCI, 2004)
Values joined by “and” are separate entries in the source; they are usually repeats but may differ in a detail not shown here. Equal entries are not always repeated. Inconclusive results and toxic doses are left out. Cut-off read from the data, not from the text of the source: active = T/C of 150% or more; inactive = T/C below 125%.

Tested on: L1210 leukemia ip in BDF1 mice, survival T/C
Test: NCI In Vivo Anticancer Drug Screen. Data for tumor model L1210 Leukemia (intraperitoneal) in B6D2F1 (BDF1) mice
Conditions: endpoint: mean survival time, higher = longer survival
In short: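 Antitumor effect is assessed in tumor-bearing animals. Survival in the compound arm is compared with a vehicle-dosed control arm and expressed as their quotient.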

[1] = dose: 100.0 mg/kg/injection, schedule: Q01DX001 (ip), vehicle: carboxymethylcellulose (CMC)
[2] = dose: 200.0 mg/kg/injection, schedule: Q01DX001 (ip), vehicle: carboxymethylcellulose (CMC)
[3] = dose: 400.0 mg/kg/injection, schedule: Q01DX001 (ip), vehicle: carboxymethylcellulose (CMC)
[4] = dose: 50.0 mg/kg/injection, schedule: Q04DX003 (ip), vehicle: Klucel (hydroxypropylcellulose) (HPC)
[5] = dose: 100.0 mg/kg/injection, schedule: Q04DX003 (ip), vehicle: Klucel (hydroxypropylcellulose) (HPC)
[6] = dose: 100.0 mg/kg/injection, schedule: Q04DX003 (ip), vehicle: saline with Tween-80
[7] = dose: 200.0 mg/kg/injection, schedule: Q04DX003 (ip), vehicle: saline with Tween-80
[8] = dose: 400.0 mg/kg/injection, schedule: Q04DX003 (ip), vehicle: saline with Tween-80
[9] = dose: 100.0 mg/kg/injection, schedule: Q04DX002 (ip), vehicle: Klucel (hydroxypropylcellulose) (HPC)
[10] = dose: 200.0 mg/kg/injection, schedule: Q04DX002 (ip), vehicle: Klucel (hydroxypropylcellulose) (HPC)
[11] = dose: 100.0 mg/kg/injection, schedule: Q01DX001 (ip), vehicle: saline
[12] = dose: 200.0 mg/kg/injection, schedule: Q01DX001 (ip), vehicle: saline
[13] = dose: 400.0 mg/kg/injection, schedule: Q01DX001 (ip), vehicle: saline
[14] = dose: 100.0 mg/kg/injection, schedule: Q01DX001 (ip), vehicle: other
[15] = dose: 200.0 mg/kg/injection, schedule: Q01DX001 (ip), vehicle: other

Measured: T/C

O=c1[nH]nc(S(=O)(=O)NC2CCCCC2)c(=O)[nH]1
inactive: [1] 101 % of control | [2] 95 % of control | [3] 110 % of control

[O]=[Zr]
inactive: dose: 25.0 mg/kg/injection, schedule: Q04DX003 (ip), vehicle: Klucel (hydroxypropylcellulose) (HPC) 90 % of control | [4] 88 % of control | [5] 88 % of control

C(/C=C/c1ccccc1)=Nc1ccc(CCc2ccc(N=C/C=C/c3ccccc3)cc2)cc1
inactive: [6] 91 % of control | [7] 92 % of control | [8] 92 % of control

Cn1nccc2c(=O)n(C)c(=O)nc1-2
inactive: [9] 97 % of control | [10] 95 % of control

O=S(=O)(O)SCC1=NCCN1
inactive: dose: 25.0 mg/kg/injection, schedule: Q04DX002 (ip), vehicle: saline 103 % of control | dose: 50.0 mg/kg/injection, schedule: Q04DX002 (ip), vehicle: saline 93 % of control | dose: 100.0 mg/kg/injection, schedule: Q04DX002 (ip), vehicle: saline 98 % of control

c1ccc2cc(NCNc3ccc4ccccc4c3)ccc2c1
inactive: [11] 100 % of control | [12] 95 % of control | [13] 100 % of control

CC1CCOC(C)(CO)O1 (centres undefined)
inactive: dose: 100.0 mg/kg/injection, schedule: Q04DX002 (ip), vehicle: saline with Tween-80 98 % of control | dose: 200.0 mg/kg/injection, schedule: Q04DX002 (ip), vehicle: saline with Tween-80 95 % of control | dose: 400.0 mg/kg/injection, schedule: Q04DX002 (ip), vehicle: saline with Tween-80 98 % of control

O=C(Nc1cccc(Cl)c1)Nc1ccccc1C(F)(F)F
inactive: dose: 50.0 mg/kg/injection, schedule: Q01DX001 (ip), vehicle: carboxymethylcellulose (CMC) 104 % of control | [1] 106 % of control | [2] 106 % of control | [3] 101 % of control

O=C(Nc1cccc(C2=NCCN2)c1)c1ccc2cc(C(=O)Nc3cccc(C4=NCCN4)c3)ccc2c1
inactive: dose: 7.5 mg/kg/injection, schedule: Q01DX Z (ip), vehicle: carboxymethylcellulose (CMC) 106 % of control | dose: 15.0 mg/kg/injection, schedule: Q01DX Z (ip), vehicle: carboxymethylcellulose (CMC) 104 % of control and 115 % of control | dose: 30.0 mg/kg/injection, schedule: Q01DX Z (ip), vehicle: carboxymethylcellulose (CMC) 104 % of control and 123 % of control | dose: 60.0 mg/kg/injection, schedule: Q01DX Z (ip), vehicle: carboxymethylcellulose (CMC) 119 % of control | dose: 120.0 mg/kg/injection, schedule: Q01DX Z (ip), vehicle: carboxymethylcellulose (CMC) 120 % of control

CCCCCCCC/C=C\CCCCCCCC(=O)OCCCCCC
inactive: dose: 100.0 mg/kg/injection, schedule: Q01DX009 (ip), vehicle: saline sonified 98 % of control | dose: 200.0 mg/kg/injection, schedule: Q01DX009 (ip), vehicle: saline sonified 102 % of control | dose: 400.0 mg/kg/injection, schedule: Q01DX009 (ip), vehicle: saline sonified 93 % of control

CC(O)C12OC1CC1C3CC4OC45CC(O)CCC5(C)C3CCC12C (centres undefined)
inactive: dose: 100.0 mg/kg/injection, schedule: Q01DX001 (sc), vehicle: steriod suspending solution 106 % of control | dose: 200.0 mg/kg/injection, schedule: Q01DX001 (sc), vehicle: steriod suspending solution 103 % of control | dose: 400.0 mg/kg/injection, schedule: Q01DX001 (sc), vehicle: steriod suspending solution 109 % of control

COc1c(N)ccc(-c2ccc(N)c(OC)c2Cl)c1Cl
inactive: dose: 75.0 mg/kg/injection, schedule: Q04DX003 (ip), vehicle: saline with Tween-80 94 % of control

CCN(CC)C(=O)Nc1ccc(O)c(C(=O)O)c1
inactive: [11] 98 % of control | [12] 95 % of control | [13] 96 % of control

CCOC(=O)C1C2OC(=O)C(C(=O)C2N=Nc2ccc(-c3ccc(N=NC4C(=O)C5C(=O)OC4C(C(=O)OCC)C5C4CC=CCC4)cc3)cc2)C1C1CC=CCC1 (centres undefined)
inactive: [14] 86 % of control | dose: 100.0 mg/kg/injection, schedule: Q01DX009 (ip), vehicle: saline with Tween-80 108 % of control | [6] 100 % of control | [15] 86 % of control | dose: 200.0 mg/kg/injection, schedule: Q01DX009 (ip), vehicle: saline with Tween-80 104 % of control | [7] 100 % of control | dose: 400.0 mg/kg/injection, schedule: Q01DX009 (ip), vehicle: saline with Tween-80 102 % of control | [8] 100 % of control

C[N+](C)(C)/N=C/c1ccccc1
inactive: dose: 12.5 mg/kg/injection, schedule: Q01DX009 (ip), vehicle: Klucel (hydroxypropylcellulose) (HPC) 97 % of control | dose: 25.0 mg/kg/injection, schedule: Q01DX009 (ip), vehicle: Klucel (hydroxypropylcellulose) (HPC) 103 % of control | dose: 50.0 mg/kg/injection, schedule: Q01DX009 (ip), vehicle: Klucel (hydroxypropylcellulose) (HPC) 93 % of control and 96 % of control

CCC(C(=O)O)=C1CCCCC1
inactive: [11] 95 % of control | [12] 95 % of control | [13] 103 % of control

COc1cc(N(CCCl)CCCl)ccc1C=Nc1ccc2c(c1)nc(C)n2C
inactive: dose: 68.8 mg/kg/injection, schedule: Q04DX002 (ip), vehicle: Klucel (hydroxypropylcellulose) (HPC) 104 % of control | dose: 137.5 mg/kg/injection, schedule: Q04DX002 (ip), vehicle: Klucel (hydroxypropylcellulose) (HPC) 101 % of control | dose: 275.0 mg/kg/injection, schedule: Q04DX002 (ip), vehicle: Klucel (hydroxypropylcellulose) (HPC) 117 % of control

NS(=O)(=O)c1ccc(Cl)c(Cl)c1
inactive: [6] 97 % of control | [7] 103 % of control | [8] 93 % of control

O=C(O)[C@H]1CCCC[C@H]1C(=O)O
inactive: [4] 98 % of control | [5] 95 % of control | dose: 200.0 mg/kg/injection, schedule: Q04DX003 (ip), vehicle: Klucel (hydroxypropylcellulose) (HPC) 103 % of control and 106 % of control | dose: 400.0 mg/kg/injection, schedule: Q04DX003 (ip), vehicle: Klucel (hydroxypropylcellulose) (HPC) 100 % of control

N#C/C(=C\c1ccc(-c2ccccc2)cc1)c1ccc(Cl)cc1
inactive: dose: 3.13 mg/kg/injection, schedule: Q01DX009 (ip), vehicle: saline with Tween-80 98 % of control | dose: 6.25 mg/kg/injection, schedule: Q01DX009 (ip), vehicle: saline with Tween-80 92 % of control | dose: 12.5 mg/kg/injection, schedule: Q01DX009 (ip), vehicle: saline with Tween-80 93 % of control and 87 % of control | dose: 12.5 mg/kg/injection, schedule: Q04DX003 (ip), vehicle: saline with Tween-80 95 % of control | dose: 25.0 mg/kg/injection, schedule: Q04DX003 (ip), vehicle: saline with Tween-80 95 % of control | dose: 50.0 mg/kg/injection, schedule: Q04DX003 (ip), vehicle: saline with Tween-80 93 % of control

CCOc1cc(C)c2cccc(C)c2n1
inactive: [1] 88 % of control | [14] 95 % of control | [2] 96 % of control | [15] 106 % of control | [3] 98 % of control

O=C1NC2Cc3ccccc3CC12 (centres undefined)
inactive: [9] 102 % of control | [10] 100 % of control | dose: 400.0 mg/kg/injection, schedule: Q04DX002 (ip), vehicle: Klucel (hydroxypropylcellulose) (HPC) 86 % of control

O=[N+]([O-])c1ccc(S(=O)[O-])cc1.O=[N+]([O-])c1ccc(S(=O)[O-])cc1.[Zn+2]
inactive: dose: 75.0 mg/kg/injection, schedule: Q01DX001 (ip), vehicle: saline 102 % of control | dose: 150.0 mg/kg/injection, schedule: Q01DX001 (ip), vehicle: saline 110 % of control
